Test results published in US20100311677A1, “Active Ingredient Combinations Having Insecticidal and Acaricidal Properties” (Bayer CropScience AG, priority 2007, published 2010).
Read-outs that look alike come from different tables or passages of the source.

Columns and labels:
Phaedon cochleariae = Phaedon cochleariae larvae test (Example E), sprayed cabbage leaves; conditions: for pest or weed control at 0.16 g/ha / pest or weed control at 0.8 g/ha / pest or weed control at 100 g/ha / pest or weed control at 4 g/ha / pest or weed control at 20 g/ha: Phaedon cochleariae, in Brassica oleracea, 144 h, read-out: Kill in % after 6d; for Kill in % after 2d: alone
Myzus persicae = Myzus persicae test (Example C), sprayed cabbage leaves; type: in vivo; conditions: for pest or weed control at 0.032 g/ha / pest or weed control at 0.16 g/ha / pest or weed control at 0.8 g/ha / pest or weed control at 4 g/ha: Myzus persicae, 144 h, read-out: Kill in % after 6d
Tetranychus urticae = Tetranychus urticae test (OP-resistant/spray treatment) (Example G), bean leaf disks; type: in vivo; conditions: for pest or weed control at 20 g/ha / pest or weed control at 4 g/ha / pest or weed control at 100 g/ha / pest or weed control at 0.8 g/ha: Tetranychus urticae, foliar, 144 h, read-out: Kill in % after 6 d; for Kill in % after 2d: alone
Description: Tetranychus urticae Test (OP-Resistant/Spray Treatment)
After the desired period of time, the activity in % is determined.

Spodoptera frugiperda = Spodoptera frugiperda larvae test (Example F), sprayed cabbage leaves; type: in vivo; conditions: for pest or weed control at 4 g/ha / pest or weed control at 0.8 g/ha: after 6 d
Source text: Spodoptera frugiperda Larvae Test

[1] = active compound alone, 20 g/ha, after 6 d
[2] = Spodoptera frugiperda, 144 h, alone, read-out: Kill in % after 6d
[3] = active compound alone, 4 g/ha, after 6 d
[4] = active compound alone, 0.8 g/ha, after 6 d
[5] = active compound alone, 100 g/ha, after 6 d

CNC(=O)c1cc(C#N)cc(C)c1NC(=O)c1cc(Br)nn1-c1ncccc1Cl [Cyazypyr (57), Cyazypyr]
pest or weed control at 0.16 g/ha (Phaedon cochleariae): 0%
Kill in % after 1d (Myzus persicae; 4 g/ha, alone): 5%

CC(c1ccc(C(F)(F)F)nc1)S(C)(=O)=NC#N (stereo not shown) [II-29-29]
pest or weed control at 20 g/ha (Tetranychus urticae; [1]): 0%

CC1(C)C(/C=C(\Cl)C(F)(F)F)C1C(=O)OC(C#N)c1cccc(Oc2ccccc2)c1 [L-cyhalothrin (12a), lambda-cyhalothrin]
pest or weed control at 4 g/ha (Spodoptera frugiperda; [2]): 50%
pest or weed control at 0.16 g/ha (Phaedon cochleariae): 0%
pest or weed control at 0.032 g/ha (Myzus persicae; alone, after 6 d): 0%

CNC(=O)c1cc(Cl)cc(C)c1NC(=O)c1cc(Br)nn1-c1ncccc1Cl [Rynaxapyr (56), chlorantraniliprole]
pest or weed control at 0.16 g/ha (Myzus persicae; 0.16 g/ha, alone, after 6 d): 0%
pest or weed control at 4 g/ha (Tetranychus urticae; [3]): 0%

COP(=O)(NC(C)=O)SC (stereo not shown) [acephate (112), acephate]
pest or weed control at 20 g/ha (Spodoptera frugiperda; Spodoptera frugiperda, 144 h, read-out: Kill in % after 6d): 33%
pest or weed control at 0.8 g/ha (Myzus persicae): 0%
pest or weed control at 100 g/ha (Tetranychus urticae): 0%

C/C(=N\C#N)N(C)Cc1ccc(Cl)nc1 [acetamiprid (25), acetamiprid]
pest or weed control at 0.8 g/ha (Phaedon cochleariae): 0%
pest or weed control at 0.16 g/ha (Myzus persicae; 0.16 g/ha, alone, after 6 d): 0%
pest or weed control at 0.8 g/ha (Tetranychus urticae; [4]): 0%

CNC(=O)O/N=C/C(C)(C)SC [aldicarb (108), aldicarb]
Kill in % after 1d (Myzus persicae; 4 g/ha, alone): 30%

Cc1ccc(/N=C/N(C)/C=N/c2ccc(C)cc2C)c(C)c1 [amitraz (86), amitraz]
pest or weed control at 100 g/ha (Phaedon cochleariae): 0%
pest or weed control at 0.8 g/ha (Myzus persicae; 0.8 g/ha, alone, after 6 d): 0%
Kill in % after 2d (Tetranychus urticae; 4 g/ha): 0%

CC1(C)C(C=C(Cl)Cl)C1C(=O)OC(C#N)c1ccc(F)c(Oc2ccccc2)c1 (stereo not drawn) [beta-cyfluthrin (3), betacyfluthrin]
pest or weed control at 0.8 g/ha (Phaedon cochleariae): 17%
pest or weed control at 0.16 g/ha (Myzus persicae; 0.16 g/ha, alone, after 6 d): 0%
pest or weed control at 0.8 g/ha (Tetranychus urticae; [4]): 0%

Cc1c(COC(=O)C2C(/C=C(\Cl)C(F)(F)F)C2(C)C)cccc1-c1ccccc1 (stereo not shown) [bifenthrin (18), bifenthrin]
pest or weed control at 0.8 g/ha (Spodoptera frugiperda; [2]): 0%

CCOCn1c(-c2ccc(Cl)cc2)c(C#N)c(Br)c1C(F)(F)F [chlorfenapyr (92), chlorfenapyr]
pest or weed control at 0.8 g/ha (Myzus persicae; 0.8 g/ha, alone, after 6 d): 0%
pest or weed control at 4 g/ha (Tetranychus urticae; [3]): 70%

CN/C(=N\[N+](=O)[O-])NCc1cnc(Cl)s1 [clothianidin (30), clothianidin]
pest or weed control at 0.032 g/ha (Myzus persicae; alone, after 6 d): 0%
pest or weed control at 0.8 g/ha (Tetranychus urticae; [4]): 0%

CN(Cc1ccc(Cl)nc1)C1=CC(=O)OC1 [compound (100)]
pest or weed control at 0.16 g/ha (Myzus persicae; 0.16 g/ha, alone, after 6 d): 0%

O=C1C=C(N(Cc2ccc(Cl)nc2)CC(F)F)CO1 [compound (101)]
pest or weed control at 0.8 g/ha (Myzus persicae; 0.8 g/ha, alone, after 6 d): 50%
pest or weed control at 20 g/ha (Tetranychus urticae; [1]): 0%

Cc1cc(C)c(-n2cnc(C(F)(F)F)n2)cc1SOCC(F)(F)F [compound (106)]
pest or weed control at 4 g/ha (Myzus persicae; 4 g/ha, alone, after 6 d): 0%

Cc1nn(C)c(/C(OC(=O)C(C)(C)C)=C(\C#N)c2ccc(C(C)(C)C)cc2)c1C [cyenopyrafen (71), (1E)-2-cyano-2-[4-(1,1-dimethylethyl)phenyl]-1-(1,3,4-trimethyl-1H-pyrazol-5-yl)ethenyl 2,2-dimethylpropanoate]
pest or weed control at 0.8 g/ha (Myzus persicae; 0.8 g/ha, alone, after 6 d): 0%

COCCOC(=O)C(C#N)(C(=O)c1ccccc1C(F)(F)F)c1ccc(C(C)(C)C)cc1 (stereo not drawn) [cyflumetofen (72), 2-methoxyethyl alpha-cyano-alpha-[4-(1,1-dimethylethyl)phenyl]-beta-oxo-2-(trifluoromethyl)benzenepropanoate]
pest or weed control at 4 g/ha (Myzus persicae; 4 g/ha, alone, after 6 d): 0%
pest or weed control at 4 g/ha (Tetranychus urticae; [3]): 80%

CC1(C)C(C=C(Cl)Cl)C1C(=O)OC(C#N)c1cccc(Oc2ccccc2)c1 (stereo not shown) [cypermethrin (5), cypermethrin]
pest or weed control at 0.8 g/ha (Spodoptera frugiperda; [2]): 17%
pest or weed control at 4 g/ha (Phaedon cochleariae): 67%
pest or weed control at 4 g/ha (Tetranychus urticae; [3]): 0%

Nc1nc(N)nc(NC2CC2)n1 [cyromazine (43), cyromazine]
pest or weed control at 100 g/ha (Phaedon cochleariae): 0%
pest or weed control at 0.8 g/ha (Myzus persicae; 0.8 g/ha, alone, after 6 d): 0%
pest or weed control at 20 g/ha (Tetranychus urticae; [1]): 0%

CC1(C)C(C=C(Br)Br)C1C(=O)OC(C#N)c1cccc(Oc2ccccc2)c1 (stereo not shown) [deltamethrin (6), deltamethrin]
pest or weed control at 0.8 g/ha (Phaedon cochleariae): 50%
Kill in % after 1d (Myzus persicae; 0.16 g/ha, alone): 40%
pest or weed control at 0.8 g/ha (Tetranychus urticae; [4]): 0%

CC(C)c1cc(Oc2ccccc2)cc(C(C)C)c1NC(=S)NC(C)(C)C [diafenthiuron (76), diafenthiuron]
pest or weed control at 20 g/ha (Phaedon cochleariae): 0%
pest or weed control at 0.8 g/ha (Myzus persicae; 0.8 g/ha, alone, after 6 d): 0%
pest or weed control at 0.8 g/ha (Tetranychus urticae; [4]): 30%

CN/C(=N/CC1CCOC1)N[N+](=O)[O-] (stereo not shown) [dinotefuran (29)]
Kill in % after 6d (Tetranychus urticae; [3]): 0%

O=S1OCC2C(CO1)C1(Cl)C(Cl)=C(Cl)C2(Cl)C1(Cl)Cl (stereo not shown) [endosulfan (49), endosulfan]
pest or weed control at 20 g/ha (Phaedon cochleariae): 33%
pest or weed control at 4 g/ha (Myzus persicae; 4 g/ha, alone, after 6 d): 0%
Kill in % after 2d (Tetranychus urticae; 100 g/ha): 0%

CC(C)C(C(=O)OC(C#N)c1cccc(Oc2ccccc2)c1)c1ccc(Cl)cc1 (stereo not shown) [esfenvalerate (7), esfenvalerate]
pest or weed control at 4 g/ha (Phaedon cochleariae): 83%
Kill in % after 1d (Myzus persicae; 0.16 g/ha, alone): 0%
pest or weed control at 0.8 g/ha (Tetranychus urticae; [4]): 0%

CC[S+]([O-])c1c(C#N)nn(-c2c(Cl)cc(C(F)(F)F)cc2Cl)c1N (stereo not shown) [ethiprole (51)]
Kill in % after 6d (Tetranychus urticae; [5]): 0%

Cc1nn(C)c(Oc2ccccc2)c1C=NOCc1ccc(C(=O)OC(C)(C)C)cc1 [fenpyroximate (65), fenpyroximate]
pest or weed control at 0.8 g/ha (Myzus persicae; 0.8 g/ha, alone, after 6 d): 0%
Kill in % after 2d (Tetranychus urticae; 0.8 g/ha): 10%

N#Cc1nn(-c2c(Cl)cc(C(F)(F)F)cc2Cl)c(N)c1[S+]([O-])C(F)(F)F (stereo not shown) [fipronil (50), fipronil]
pest or weed control at 4 g/ha (Myzus persicae; 4 g/ha, alone, after 6 d): 0%

N#CCNC(=O)c1cnccc1C(F)(F)F [flonicamid (89), flonicamid]
Kill in % after 2d (Tetranychus urticae; 100 g/ha): 0%

O=C(NC(=O)c1c(F)cccc1F)Nc1ccc(Oc2ccc(C(F)(F)F)cc2Cl)cc1F [flufenoxuron (38), flufenoxuron]
pest or weed control at 4 g/ha (Phaedon cochleariae): 0%
pest or weed control at 20 g/ha (Tetranychus urticae; [1]): 0%

O=[N+]([O-])/N=C1\NCCN1Cc1ccc(Cl)nc1 [imidacloprid (24), imidacloprid]
pest or weed control at 0.032 g/ha (Myzus persicae; alone, after 6 d): 0%
pest or weed control at 0.8 g/ha (Tetranychus urticae; [4]): 0%

COC(=O)N(C(=O)N1COC2(C(=O)OC)Cc3cc(Cl)ccc3C2=N1)c1ccc(OC(F)(F)F)cc1 (stereo not shown) [indoxacarb (94), indoxacarb]
pest or weed control at 4 g/ha (Spodoptera frugiperda; [2]): 0%
pest or weed control at 4 g/ha (Myzus persicae; 4 g/ha, alone, after 6 d): 0%
pest or weed control at 100 g/ha (Tetranychus urticae; [5]): 0%

O=C(NC(=O)c1c(F)cccc1F)Nc1cc(Cl)c(OC(F)(F)C(F)C(F)(F)F)cc1Cl (stereo not shown) [lufenuron (34), lufenuron]
Kill in % after 2d (Spodoptera frugiperda; 100 g/ha, alone, after 2 d): 0%
pest or weed control at 0.8 g/ha (Myzus persicae; 0.8 g/ha, alone, after 6 d): 0%
pest or weed control at 20 g/ha (Tetranychus urticae; [1]): 0%

CNC(=O)Oc1cc(C)c(SC)c(C)c1 [methiocarb (110), methiocarb]
pest or weed control at 4 g/ha (Phaedon cochleariae): 0%

COc1cccc(C(=O)NN(C(=O)c2cc(C)cc(C)c2)C(C)(C)C)c1C [methoxyfenozide (44), methoxyfenozide]
pest or weed control at 0.8 g/ha (Myzus persicae; 0.8 g/ha, alone, after 6 d): 0%
pest or weed control at 20 g/ha (Tetranychus urticae; [1]): 0%

O=C(NC(=O)c1c(F)cccc1F)Nc1ccc(OC(F)(F)C(F)OC(F)(F)F)c(Cl)c1 (stereo not shown) [novaluron (37), novaluron]
pest or weed control at 4 g/ha (Phaedon cochleariae): 83%

CC1=NNC(=O)N(/N=C/c2cccnc2)C1 [pymetrozine (88), pymetrozine]
pest or weed control at 100 g/ha (Phaedon cochleariae): 0%
Kill in % after 1d (Myzus persicae; 20 g/ha, alone): 20%
pest or weed control at 20 g/ha (Tetranychus urticae; [1]): 0%

FC(F)(F)c1ccc(OCCCOc2c(Cl)cc(OCC=C(Cl)Cl)cc2Cl)nc1 [pyridalyl (99)]
Kill in % after 6d (Tetranychus urticae; [1]): 0%

CC(COc1ccc(Oc2ccccc2)cc1)Oc1ccccn1 (stereo not shown) [pyriproxifen (90), pyriproxyfen]
pest or weed control at 100 g/ha (Phaedon cochleariae): 0%
pest or weed control at 0.8 g/ha (Myzus persicae; 0.8 g/ha, alone, after 6 d): 0%
pest or weed control at 20 g/ha (Tetranychus urticae; [1]): 0%

CCC(C)(C)C(=O)OC1=C(c2ccc(Cl)cc2Cl)C(=O)OC12CCCCC2 [spirodiclofen (96), spirodiclofen]
pest or weed control at 100 g/ha (Phaedon cochleariae): 0%
pest or weed control at 0.8 g/ha (Myzus persicae; 0.8 g/ha, alone, after 6 d): 0%

Cc1cc(C)c(C2=C(OC(=O)CC(C)(C)C)C3(CCCC3)OC2=O)c(C)c1 [spiromesifen (97), spiromesifen]
pest or weed control at 0.8 g/ha (Myzus persicae; 0.8 g/ha, alone, after 6 d): 0%

CCc1nn(C)c(C(=O)NCc2ccc(C(C)(C)C)cc2)c1Cl [tebufenpyrad (64), tebufenpyrad]
pest or weed control at 0.8 g/ha (Myzus persicae; 0.8 g/ha, alone, after 6 d): 0%

N#C/N=C1\SCCN1Cc1ccc(Cl)nc1 [thiacloprid (28), thiacloprid]
Kill in % after 2d (Phaedon cochleariae; 4 g/ha): 0%
pest or weed control at 0.032 g/ha (Myzus persicae; alone, after 6 d): 0%
pest or weed control at 0.8 g/ha (Tetranychus urticae; [4]): 0%

CN1COCN(Cc2cnc(Cl)s2)/C1=N/[N+](=O)[O-] [thiamethoxam (26), thiamethoxam]
pest or weed control at 0.032 g/ha (Myzus persicae; alone, after 6 d): 0%

abamectin [abamectin (60)]
Kill in % after 1d (Myzus persicae; 20 g/ha, alone): 5%

carbosulfan [carbosulfan (109)]
Kill in % after 1d (Myzus persicae; 4 g/ha, alone): 0%

chlorpyrifos [chlorpyrifos (95)]
Kill in % after 6d (Myzus persicae; 0.8 g/ha, alone, after 6 d): 0%
Kill in % after 6d (Tetranychus urticae; [1]): 0%

profenofos [profenofos (114)]
Kill in % after 1d (Myzus persicae; 0.8 g/ha, alone): 0%
Kill in % after 6d (Tetranychus urticae; [1]): 0%

pyridaben [pyridaben (66)]
Kill in % after 2d (Phaedon cochleariae; 20 g/ha): 33%
Kill in % after 6d (Myzus persicae; 0.8 g/ha, alone, after 6 d): 0%
